From patent US20230364089A1, “COMPOUNDS AND COMPOSITIONS FOR THE TREATMENT OR PREVENTION OF PATHOLOGICAL CONDITIONS ASSOCIATED WITH EXCESS FIBRIN DEPOSITION AND/OR THROMBUS FORMATION” (Cereno Scientific AB, priority 2016, published 2023)
Read-outs that look alike come from different tables or passages of the source.

Key:
[1] = system: PAI-1; experiment: Example 2 intermediate endpoint study in patients with TIA/minor stroke: plasma PAI-1 and plasma valproic acid
Description: An intermediate endpoint proof-of-concept study is performed in patients with TIA/minor stroke investigated before and after treatment with Valproic acid. Valproic acid is administrated as an enteric-coated tablet with delayed absorption.
The study comprises 20 patients with TIA/minor stroke. Patients are investigated before and after oral treatment with 400 mg valproic acid once time daily at 11 pm for 2 weeks. Plasma PAI-1 levels and plasma concentrations of valproic acid is followed daily during the study period at the following time-points: 3 am, 6 am, 10 am, 16 pm, 22 pm PAI-1 levels are measured by commercially available ELISA-kits (Coaliza PAI-1, ChromogenixAB) and the plasma concentration of valproic acid an metabolites thereof is analyzed according to clinical routine at the Sahlgrenska University laboratory, Gothenburg, Sweden.

[2] = Example 3 clinical outcome study in high-risk patients: recurrent atherothrombotic events; format: in vivo, human; conditions: 400 mg valproic acid once daily at 11 pm, long-term, expected
Description: A clinical outcome study is performed in high-risk patients who have experienced a recent major atherothrombotic cardiovascular event (myocardial infarction or TIA/ischemic stroke) to investigate the preventive effect of valproic acid treatment on the risk for recurrent events. The annual risk for a recurrent atherothrombotic event in the investigated population is estimated to approximately 7%. […] The event rate is monitored by Kaplan-Meyer statistics. The primary efficacy endpoint is the composite measure of either mortality, or non-fatal myocardial infarction or ischemic stroke. The study is event-driven to a total of 180 events. […] Thus, the study is expected to confirm the clinical efficacy and feasibility of using valproic acid for secondary prevention of cardiovascular disease.

[3] = system: cultured endothelial cells; experiment: PAI-1 mRNA / production in cultured endothelial cells after VPA treatment; format: cell-based; conditions: no decrease of PAI-1 mRNA levels, slight but significant increase
[4] = system: PAI-1; experiment: Proof-of-concept study 1: plasma PAI-1 before and after VPA in healthy subjects; format: in vivo, human
Description: (§1) The effects of VPA on PAI-1 were analysed in two different proof-of-concept studies in healthy subjects as well as in patients with manifest atherosclerotic disease. […] PAI-1 plasma levels were measured in the morning at the first day of the study as well as at the end of the treatment period with VPA (see example 2 for details on the PAI-1 analysis).
In the first study, 10 healthy non-smoking white male subjects (with mean BMI of approximately 26), aged 50-70 years were included and treated with valproic acid 500 mg (Ergenyl Retard, Sanofi) twice daily during 14 days.

[5] = system: PAI-1; experiment: Plasma PAI-1 in in vivo model in mouse; conditions: in vivo model in mouse (unpublished data)
[6] = system: PAI-1; conditions: in vivo model in pig (Svennerholm et al., PLoS One 2014); cited from earlier work
[7] = system: PAI-1; experiment: Proof-of-concept study 2: plasma PAI-1 before and after VPA in patients with a history of myocardial infarction; format: in vivo, human; conditions: midmorning; for reduction in circulating plasma PAI-1 levels: 16 male patients with history of myocardial infarction, valproic acid 500 mg (Ergenyl Retard) twice daily for 28 days on top of ordinary prescription, p=0.01
Description: as §1
In the second study, 16 non-smoking white male patients, aged 50-80 years with a history of a myocardial infarction were included. On top of their ordinary prescription (beta-blocker, ACE-inhibitor, statin, aspirin) they were treated with valproic acid 500 mg (Ergenyl Retard, Sanofi), twice daily during 28 days.

[8] = cited from earlier work
[9] = once daily (in healthy volunteers); cited from earlier work

CCCC(CCC)C(=O)O [valproic acid, 2-propylpentanoic acid]
time of peak plasma concentration of valproic acid ([1]; 400 mg valproic acid enteric-coated tablet with delayed absorption, oral once daily at 11 pm for 2 weeks): between 3 am and 6 am
lowering of plasma PAI-1 levels after the treatment ([1]; 400 mg valproic acid oral once daily at 11 pm for 2 weeks): approximately 30%
reduction of risk for recurrent atherothrombotic event ([2]; in addition to conventional therapy): approximately 30%
annual absolute event rate ([2]; approximately 7% estimated without treatment): approximately 5%
increase in PAI-1 production [3]: 30%
reduction in circulating plasma PAI-1 levels ([4]; 10 healthy men aged 50-70, valproic acid 500 mg (Ergenyl Retard) twice daily for 14 days, mid-morning vs before treatment, p<0.05): more than 50%
circulating plasma PAI-1 level after treatment ([4]; healthy men, valproic acid 500 mg twice daily for 14 days, mid-morning, 22.2 ng/ml before treatment): 10.8 ng/mL
effects on plasma PAI-1 [5]: did not detect any effects
effects on plasma PAI-1 [6]: did not detect any effects
reduction in circulating plasma PAI-1 levels [7]: 45%
reduction in circulating plasma PAI-1 levels ([7]; listed as VPA): about 45%
circulating plasma PAI-1 level after treatment ([7]; patients with history of myocardial infarction, valproic acid 500 mg twice daily for 28 days, 19.6 ng/ml before treatment): 11 ng/mL

CCCCc1nc2cc(/C=C/C(=O)NO)ccc2n1CCN(CC)CC [SB939, (2E)-3-{2-butyl-1-[2-(diethylamino)ethyl]-1H-benzimidazol-5-yl}-N-hydroxyacrylamide]
MTD ([8]; once daily): 60 mg once daily

Cc1[nH]c2ccccc2c1CCNCc1ccc(/C=C/C(=O)NO)cc1 [Panobinostat, (E)-N-hydroxy-3-[4-[[2-(2-methyl-1H-indol-3-yl)ethylamino]methyl]phenyl]prop-2-enamide]
MTD ([8]; every other day): 20 mg every other day

CCN(CC)Cc1ccc2cc(COC(=O)Nc3ccc(C(=O)NO)cc3)ccc2c1.Cl [Givinostat, {6-[(diethylamino)methyl]-naphthalen-2-yl}methyl[4-(hydroxycarbamoyl)phenyl]carbamate]
MTD [9]: 200 mg once daily (in healthy volunteers)

O=C(CCCCCCC(=O)Nc1ccccc1)NO [Vorinostat, N-hydroxy-N′-phenyl-octanediamide]
MTD ([8]; once daily): 400 mg once daily

O=C(/C=C/c1cccc(S(=O)(=O)Nc2ccccc2)c1)NO [Belinostat, (2E)-3-[3-(anilinosulfonyl)phenyl]-N-hydroxy-acrylamide]
MTD ([8]; bidaily): 1000 mg bidaily
